Laboratory results published in PubChem BioAssay AID652187 (Sanford-Burnham Center for Chemical Genomics, 2013).
The source made the active and inactive calls.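 How the source made its calls: active means IC50 of 25 µM or lower, counted as toxic to worms; inactive means the rest.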

System: C. elegans VP596 worms, composite health score, 20-22 h
Experiment: nematode cytotoxicity of SKN-1 inhibitor analogs – whole organism, strain VP596, composite health score, round 1, cytotoxicity control for SKN-1 inhibitor project, SAR follow-up (AID 652187)

SMILES	IC50
c1ccc(-c2csc(-c3cccnc3)n2)cc1	63.3 µM (inactive)
CCOc1cc(CNC2CCCC2)cc(Cl)c1OC	> 64 µM (inactive)
COc1ccc(-c2csc(-c3ccncc3)n2)cc1	> 64 µM (inactive)
Fc1ccc(-c2csc(-c3cccnc3)n2)cc1	> 64 µM (inactive)
CCOc1cc(CNC2CCCC2)cc(Cl)c1OCc1cccc(F)c1	> 64 µM (inactive)
Fc1ccc(COc2ccc(CNC3CCCC3)cc2Cl)cc1	> 64 µM (inactive)
CCOc1cc(CNC2CCCC2)ccc1OCc1ccc(F)cc1	> 64 µM (inactive)
CCOc1cc(CNC2CCCCC2)cc(Cl)c1OCc1ccc(F)cc1	> 64 µM (inactive)
COc1cc(CNC2CCCC2)cc(Cl)c1OCc1ccc(F)cc1	> 64 µM (inactive)
c1ccc(-c2csc(-c3ccncc3)n2)cc1	> 64 µM (inactive)
CCOc1cc(CNC2CCCC2)cc(Cl)c1OCc1ccc(Cl)cc1	> 64 µM (inactive)
CCOc1cc(CNC2CCCC2)cc(Cl)c1OCc1ccccc1F	> 64 µM (inactive)
CCOc1cc(CNC2CCCC2)cc(Cl)c1OCc1ccc(C)cc1	> 64 µM (inactive)
CCOc1cc(CNc2ccccc2)cc(Cl)c1OCc1ccc(F)cc1	> 64 µM (inactive)
Cc1ccc(-c2csc(-c3cccnc3)n2)cc1	61.1 µM (inactive)
CCOc1cc(CNC2CCCC2)cc(Cl)c1OCc1ccccc1Cl	> 64 µM (inactive)
CCOc1cc(CNC2CCC2)cc(Cl)c1OCc1ccc(F)cc1	> 64 µM (inactive)
CCOc1cc(C(=O)NC2CCCC2)cc(Cl)c1OCc1ccc(F)cc1	> 64 µM (inactive)
Clc1ccc(-c2csc(-c3ccncc3)n2)cc1	< 64 µM (inactive)
Clc1ccc(-c2csc(-c3cccnc3)n2)cc1	> 64 µM (inactive)
CCOc1cc(CNCc2ccccc2)cc(Cl)c1OCc1ccc(F)cc1	> 64 µM (inactive)
Cc1ccc(-c2csc(-c3ccncc3)n2)cc1	> 64 µM (inactive)
CCOc1cc(CNC(C)C)cc(Cl)c1OCc1ccc(F)cc1	> 64 µM (inactive)
CCOc1cc(CNC2CCCC2)cc(Cl)c1OCc1ccc(F)cc1	> 64 µM (inactive)
CCOc1cc(CNC2CCCC2)cc(Cl)c1OCc1ccc(OC)cc1	> 64 µM (inactive)
CCOc1cc(CNC2CC2)cc(Cl)c1OCc1ccc(F)cc1	> 64 µM (inactive)
COc1ccc(-c2csc(-c3cccnc3)n2)cc1	> 64 µM (inactive)
Fc1ccc(-c2csc(-c3ccncc3)n2)cc1	> 64 µM (inactive)
